Values of other authors in patent US20190359769A1, “PHARMACEUTICAL AGENT FOR IRON CHELATING” (Johannes Gutenberg-Universität Mainz, priority 2017, published 2019).
Blank lines part the entries; values can stand above or below the molecule they belong to.

Experiments:
[1] = one study
[2] = studies on rats and humans
[3] = in vivo
[4] = Fe^3+ complex

SMILES: Cc1c(O)c(=O)ccn1C [DFP, Deferiprone]
proportion of the DFP dose administered found in the urine in the form of inactive 3-O-glucoronide conjugates [1]: 85%

physiological half-life [2]: 8-16 h
SMILES: O=C(O)c1ccc(-n2nc(-c3ccccc3O)nc2-c2ccccc2O)cc1 [DFX, Deferasirox]

plasma half-life [3]: about 5 minutes | logarithmic stability constant of iron complexes [4]: 30
SMILES: CC(=O)N(O)CCCCCNC(=O)CCC(=O)N(O)CCCCCNC(=O)CCC(=O)N(O)CCCCCN [DFO, Deferoxamine]
